{"source": "patent US20170245495A1", "about": "“CHEMICAL LURE FOR ASIAN CITRUS PSYLLID” (The Regents of the University of California, priority 2014, published 2017)", "origin": "cited, not measured here", "tested_on": "D. citri", "conditions": "Mann et al. 2012, Patt and Setamou 2010", "note": "Where two headings read alike, the source gives them in different places.", "data": [{"molecule": "C=CC(C)(O)CCC=C(C)C", "note": "(stereo not shown) [linalool]", "values": [{"measurement": "attraction of D. citri (literature)", "value": "attractive to D. citri"}]}, {"molecule": "C=C/C(C)=C/CC=C(C)C", "note": "[β-ocimene, (E)-β-ocimene]", "values": [{"measurement": "attraction of D. citri (literature)", "value": "attractive to D. citri"}]}, {"molecule": "COC(=O)c1ccccc1O", "note": "[methyl salicylate]", "values": [{"measurement": "attraction of D. citri (literature)", "value": "implicated as D. citri attractants"}, {"measurement": "attraction of D. citri (literature)", "setting": "listed as MeSA", "value": "attractant for D. citri"}]}]}
